From article PMC9385704, “A tubulin binding molecule drives differentiation of acute myeloid leukemia cells” (iScience, 2022)

Target: tubulin beta chain (TUBB) (Homo sapiens, UniProt P07437)
Assay: competition with photoaffinity probe […] in HL-60 cells; pull-down LC-MS/MS and anti-TUBB immunoblot
Format: cell-based

Chain of tubulin beta chain (TUBB) (P07437 whole entry): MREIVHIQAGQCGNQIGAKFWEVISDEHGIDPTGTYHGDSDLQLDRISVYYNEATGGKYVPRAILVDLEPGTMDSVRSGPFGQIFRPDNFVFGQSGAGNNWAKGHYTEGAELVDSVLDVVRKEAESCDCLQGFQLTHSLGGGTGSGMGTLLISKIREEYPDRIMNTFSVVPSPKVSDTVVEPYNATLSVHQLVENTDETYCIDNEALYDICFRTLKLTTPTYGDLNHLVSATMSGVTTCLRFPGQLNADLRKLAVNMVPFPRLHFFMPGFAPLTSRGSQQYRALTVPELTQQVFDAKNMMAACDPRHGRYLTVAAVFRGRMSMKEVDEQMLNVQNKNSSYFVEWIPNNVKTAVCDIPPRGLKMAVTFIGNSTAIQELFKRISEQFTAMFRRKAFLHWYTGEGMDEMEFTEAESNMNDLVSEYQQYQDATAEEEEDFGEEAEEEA

For `Cc1cc(C#N)ccc1-c1cc2c(cn1)ncn2-c1ccc2c(C)n[nH]c2c1` [compound 5, 3-Methyl-4-[1-(3-methyl-1H-indazol-6-yl)imidazo[4,5-c]pyridin-6-yl]benzonitrile], the “competition with photoaffinity probe 4 in HL-60 cells; pull-down LC-MS/MS and an” value was “The results clearly show concentration-dependent competition with OXS0082555 and paclitaxel confirming tubulin beta chain as a direct target”.
